Data set [1] is classed as in vivo. To be noted: mouse, 1 g/kg in a single dose. On the procedure:
No toxicity is found even when the above-mentioned effective ingredient usable in the present invention is administered in an amount effective for the exhibition of its action.

Data set [2] relates to NGF. Briefly: NGF content in rat tissues after forced oral administration of xanthohumol (enzyme immunoassay). The data set is classed as in vivo, rat (SD). Conditions: excised on fifth day, average ± standard error, n=4. On the procedure:
(§1) (2) Male SD rats were purchased from Japan SLC, Inc., and used for an experiment from 7-week old after preliminary rearing. Xanthohumol described in Example 1 was suspended in distilled water, and the rats were subjected to forced oral administration of the suspension at a ratio of 3 and 10 mg of xanthohumol respectively per 1 kg of body weight. In addition, the suspension was intraperitoneally administered at a ratio of 1, 3 or 10 mg of xanthohumol. A control group was administered with distilled water in the same manner as above. In either group, four rats were administered once a day for consecutive days. In the case of the forced oral administration, the submandibular gland and the brain were excised on the fifth day from the beginning of administration. In the case of the intraperitoneal administration, ischiadic nerve and gastrocneminal muscle were excised at 4 hours after the end of administration on the third day. The excised tissues were homogenized and centrifuged, and the NGF contents in the supematant were determined by enzyme immunoassay method (manufactured by Roche).
(§2) The numbers in the tables represent an average value ± standard error for the four cases. In addition, an asterisk * symbol means that the group has a significant difference at a significance level of 5% or less as compared to the control group according to Student-t test, and a triple asterisk *** symbol means that the group similarly has a significant difference at a significance level of 0.1% or less.

In data set [3] the test system is NGF. Briefly: NGF content in rat tissues after intraperitoneal administration of xanthohumol (enzyme immunoassay). The data set is classed as in vivo, rat (SD). To be noted: excised 4 hours after administration on third day, average ± standard error. As to the method:
as §1, §2

Data set [4] is described as follows: Water maze test in rats with ibotenic acid-induced learning and memory disorder. In kind it is in vivo, rat (Wistar). Conditions: forced oral 10 mg/kg once a day, average ± standard error, n=9. As to the method: Male Wistar rats were purchased from Japan SLC, Inc., and used for an experiment from 7-week old after preliminary rearing. Ibotenic acid was administered intracerebrally to cause a learning and memory disorder. Nine rats were used for each group, and administration was begun one week after the administration of ibotenic acid. Xanthohumol of Example 1 was suspended in distilled water, and the rats were subjected to forced oral administration with the suspension at a ratio of 10 mg of xanthohumol per 1 kg of body weight. A control group was administered with distilled water in the same manner as above. The rats were administered once a day for consecutive days. A water maze test was carried out on and after the seventh day from the beginning of the administration to evaluate ability of recognizing spaces and directions.
The water maze test method was carried out as follows. Water of about 22° C. was charged in a large-scaled water vessel. A platform was set at a height of 2 cm below the water level, and rats were made to enter into water. The rats in water swim around so as to escape from water and take refuge in the platform. The time period from entering into water to taking refuge in the platform was recorded. After taking the refuge, the rats were made to observe surrounding environments on the platform. […]

Setting [5] is: forced oral 10 mg/kg once a day.
The mark [6] stands for this setting: intraperitoneal 1 mg/kg once a day.
[7] abbreviates: intraperitoneal 3 mg/kg once a day.
Where [8] appears, read: intraperitoneal 10 mg/kg once a day.

Marks after values point to notes of the source that are not given here.

1 compound from patent US20040219238A1, “Remedies” (priority 2001, published 2004) can be followed below.

`COc1cc(O)c(CC=C(C)C)c(O)c1C(=O)/C=C/c1ccc(O)cc1` [Xanthohumol, xanthohumol]: the cases of deaths result in data set [1] is “no cases of deaths are found”. In addition, the “NGF Content in Brain of Rat” value is reported as 508.2 ± 95.1 pg/g tissue with NGF [2] (forced oral 3 mg/kg once a day) and 524.9 ± 200.7 pg/g tissue in the data set with NGF [2] (setting [5]). Moreover, the “NGF Content in Submandibular Gland of Rat” value is 8.88 ± 0.98*** ng/g tissue with NGF [2] (forced oral 3 mg/kg once a day) and 13.39 ± 0.65*** ng/g tissue in the data set on NGF [2] (setting [5]). In addition, the results for the “NGF Content in Gastrocneminal Muscle of Rat” value in the data set on NGF [3] (setting [6]), in the data set with NGF [3] (setting [7]) and in the data set with NGF [3] (setting [8]) were 48.0 ± 3.4 pg/g tissue, 53.9 ± 4.0 pg/g tissue and 56.8 ± 3.3 pg/g tissue, respectively. Also, the “NGF Content in Ischiadic Nerve of Rat” value is 386.4 ± 30.1* pg/g tissue with NGF [3] (setting [6]), 351.6 ± 26.8 pg/g tissue in the data set on NGF [3] (setting [7]) and 445.7 ± 59.1 pg/g tissue with NGF [3] (setting [8]). In data set [4] (on and after seventh day), the “Time Period from entering water to taking refuge in the platform, First Trial” value amounted to 140.7 ± 14.7 s. In addition, the “Time Period from entering water to taking refuge in the platform, Second Trial” value in data set [4] (second trial on next day) came out at 71.3 ± 10.8 s.
